In PubChem BioAssay AID2432 (Johns Hopkins Ion Channel Center, 2010):

Molecular target: Potassium voltage-gated channel subfamily KQT member 2 (Rattus norvegicus) (UniProt O88943)
Assay: KCNQ2 point mutants response to potentiator, late-stage follow-up, mechanism study for KCNQ2 potentiator project, cell-based, rat KCNQ2, manual patch clamp, mode of action (AID 2432)
Conditions: HEK293-KCNQ2 manual patch clamp, peak current ratio, at 10 µM; for V1/2: stronger effect = lower value

Potassium voltage-gated channel subfamily KQT member 2 (Rattus norvegicus), sequence (O88943 whole entry, looked up): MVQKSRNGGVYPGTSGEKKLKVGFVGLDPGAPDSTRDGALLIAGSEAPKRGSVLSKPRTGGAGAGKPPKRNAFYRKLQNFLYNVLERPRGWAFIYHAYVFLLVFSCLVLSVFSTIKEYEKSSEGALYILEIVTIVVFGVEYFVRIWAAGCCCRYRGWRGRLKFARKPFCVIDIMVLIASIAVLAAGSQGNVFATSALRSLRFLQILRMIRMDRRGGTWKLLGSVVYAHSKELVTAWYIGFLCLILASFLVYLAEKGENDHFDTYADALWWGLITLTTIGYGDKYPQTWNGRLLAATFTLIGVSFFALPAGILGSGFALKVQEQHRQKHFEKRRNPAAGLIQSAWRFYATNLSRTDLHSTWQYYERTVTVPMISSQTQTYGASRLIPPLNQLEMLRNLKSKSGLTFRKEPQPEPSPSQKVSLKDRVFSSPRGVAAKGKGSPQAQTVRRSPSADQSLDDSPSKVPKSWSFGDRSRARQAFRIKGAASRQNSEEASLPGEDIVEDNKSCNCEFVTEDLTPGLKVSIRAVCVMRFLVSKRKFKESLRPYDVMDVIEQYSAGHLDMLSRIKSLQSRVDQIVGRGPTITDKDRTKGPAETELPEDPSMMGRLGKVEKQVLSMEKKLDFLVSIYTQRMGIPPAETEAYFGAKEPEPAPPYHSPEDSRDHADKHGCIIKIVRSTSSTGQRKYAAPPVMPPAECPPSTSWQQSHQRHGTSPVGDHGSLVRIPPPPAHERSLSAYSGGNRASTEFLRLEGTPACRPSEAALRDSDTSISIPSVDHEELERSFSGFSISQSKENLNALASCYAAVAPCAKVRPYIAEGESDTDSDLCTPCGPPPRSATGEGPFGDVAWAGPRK

current ratio I/I0 (stronger effect = higher value): 1.9
V1/2 (measured here: L249A mutant V1/2): -41.8 mV
current ratio I/I0 (measured here: L249A mutant current ratio, stronger effect = higher value): 1.8
V1/2 (measured here: L249A/L275A double mutant V1/2): -9.1 mV
current ratio I/I0 (measured here: L249A/L275A double mutant current ratio, stronger effect = higher value): 2.3
V1/2 (measured here: L275A mutant V1/2): -28.3 mV
current ratio I/I0 (measured here: L275A mutant current ratio, stronger effect = higher value): 1.8
V1/2 (measured here: W236L mutant V1/2): -38.6 mV
current ratio I/I0 (measured here: W236L mutant current ratio, stronger effect = higher value): 1.7
deactivation tau (measured here: WT deactivation time constant, stronger effect = higher value): 172 ms
V1/2 (measured here: WT half-activation voltage with compound): -55.3 mV
SMILES: O=C(Nc1ccc(Cl)nc1)c1ccc(F)cc1
